Our source for the IC50 values is US20240025919A1, “AZA-TETRACYCLIC OXAZEPINE COMPOUNDS AND USES THEREOF” (Genentech, Inc., priority 2022, published 2024).

Assay [1] deals with HPAC (homozygous mutant KRAS G12D human pancreatic cell line). Nature of the assay: KRAS 3D-Cell Proliferation Assay, HPAC (CellTiter-Glo 3D, 7 days). In kind it is cell-based. The following applies: HPAC 3D culture, read-out: Prolif HPAC 3D ATP IC50. The protocol:
(§1) Example 503: KRAS 3D-Cell Proliferation Assays. Cellular potencies of compounds are assessed by evaluating inhibition of proliferation in 3D cultures of homozygous mutant KRAS G12D human pancreatic cell lines (AsPC-1 and HPAC) as compared to a KRAS wild type human lung adenocarcinoma cell line (PC-9 and/or H1975). Cells are seeded into 384-well black round-bottom, ultra-low attachment assay plates in 50 uL cell growth medium (RPMI-1640 with 10% fetal bovine serum and 2 mM L-glutamine). After overnight incubation at 37° C. and 5% CO2, compounds solubilized in DMSO are added as dilution series to the wells in a total volume of 150 nL (0.3% DMSO final). The cells are incubated for 7 days at 37° C. and 5% CO2. Cell proliferation is quantitated by addition of 40 uL/well of CellTiter-GloO 3D (Promega), and the well contents are mixed 20× at high speed using liquid handling automation workstation (Bravo with 384-well head) and centrifuged at 1500 rpm for 2 minutes to eliminate bubbles. This reagent in combination with mechanical disruption releases the cellular ATP to promote activity in a luciferase-based enzyme/substrate chemiluminescent detection system. After a 30-minute incubation under ambient conditions with shaking and an additional 10 minutes without shaking, the luminescence is read on a plate reader (e.g. EnVision [PerkinElmer]). The results are normalized to percent inhibition based on the following control samples: DMSO (0% inhibition) and 1 uM staurosporine (100% inhibition). The normalized luminescence results are plotted against compound concentration, and the data are fit to a 4-parameter Hill equation to determine the IC50 values.
Background: In ATP-based viability assays light output follows the ATP content of the culture.

Assay [2] has as its target T1, KRAS WT (Homo sapiens (Human), UniProt P01116). Nature of the assay: KRAS WT Biochemical Assay, BODIPY-GDP Exchange TR-FRET (Example 501; 3 nM KRAS WT, 3 nM SOS1, 60-minute incubation). Summed up: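 SOS1-mediated exchange assay: 3 nM biotin-KRAS WT with terbium-streptavidin, started with 3 nM SOS1 and 300 nM BODIPY-GDP, HEPES pH 7.5 with MgCl2. TR-FRET (520/490 nm) read after 60 min; normalized to DMSO and full-inhibition control, IC50 from 4-parameter Hill fit.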
(TR-FRET usually uses a lanthanide donor and a delayed reading to cut background.)

The target of a further assay is KRAS G12D (Homo sapiens (Human), UniProt P01116, G12D). Nature of the assay: KRAS G12D LoEnz Biochemical Assay, BODIPY-GDP Exchange TR-FRET (SOS1-mediated nucleotide exchange). The settings on record: read-out: KRas (G12D) GDP HTRF IC50.
Sequence of KRAS G12D (P01116-2 other isoform, or with tags, fused parts or gaps G12D): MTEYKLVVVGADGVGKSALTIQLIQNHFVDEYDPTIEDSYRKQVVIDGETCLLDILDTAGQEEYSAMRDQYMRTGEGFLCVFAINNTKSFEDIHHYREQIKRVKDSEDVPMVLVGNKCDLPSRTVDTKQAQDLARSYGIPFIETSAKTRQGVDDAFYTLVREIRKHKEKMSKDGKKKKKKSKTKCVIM
Assay [3] has as its system H1975 (KRAS wild type human lung adenocarcinoma cell line). Nature of the assay: KRAS 3D-Cell Proliferation Assay, H1975 (CellTiter-Glo 3D, 7 days). Format: cell-based. The following applies: H1975 3D culture, read-out: Prolif H1975 3D ATP IC50. The protocol:
as §1

Assay [4] concerns the target T1, KRAS WT. Nature of the assay: KRAS WT Biochemical Assay, BODIPY-GDP Exchange TR-FRET (Example 502; 0.06 nM KRAS WT, 15 nM GDP, 300 nM SOS1, 120-minute incubation). The settings on record: read-out: KRas HTRF IC50. The gist of the method: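 IC50 from a 4-parameter Hill fit of percent inhibition, itself the TR-FRET 520/490 nm ratio scaled between DMSO and a fully inhibiting control. Reaction: 300 nM SOS1 and 300 nM BODIPY-GDP added to preformed 0.06 nM KRAS WT/15 nM GDP/Tb-streptavidin complex; 120 min incubation; pH 7.5 HEPES, MgCl2, DTT.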

The mark [5] stands for this setting: read-out: KRas(wt) GDP HTRF IC50.

Where two headings read alike, the source gives them in different places.

T1 sequence (P01116-2 other isoform, or with tags, fused parts or gaps): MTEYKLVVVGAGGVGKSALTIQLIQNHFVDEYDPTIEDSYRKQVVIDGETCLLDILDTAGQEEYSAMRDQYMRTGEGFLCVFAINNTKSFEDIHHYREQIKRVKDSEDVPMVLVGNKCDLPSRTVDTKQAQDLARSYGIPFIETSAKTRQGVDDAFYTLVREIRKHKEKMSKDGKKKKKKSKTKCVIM

As to `Cc1c(F)c(N)cc(-c2nc3c4c(nc(OC[C@@]56CCCN5C[C@H](F)C6)nc4c2F)N2CCN[C@H](C)[C@@H]2[C@H](C)O3)c1C(F)(F)F` (single isomer, unassigned) [234 (isomer 3)], the IC50 in assay [1] (Homo sapiens, HPAC, 168 h) stood at 2000 nM; at KRAS WT [2] (read-out: KRas HTRF IC50), 4570 nM; on KRAS G12D, 4810 nM; in assay [3] (Homo sapiens, NCI-H1975, 168 h), 16600 nM.

On to `Cc1c(F)c(N)cc(-c2nc3c4c(nc(OC[C@H]5COC[C@H]6CCCN65)nc4c2F)N2C[C@H]4CC[C@H](N4)[C@H]2[C@H](C)O3)c1C(F)(F)F` (single isomer, unassigned) [121 (isomer 1)], for which the IC50 at KRAS WT [4] amounted to 108 nM; at KRAS G12D, 0.68 nM; in assay [3] (Homo sapiens, NCI-H1975, 168 h) it was 1340 nM.

Take `CC(c1cc(F)c(N)cc1-c1nc2c3c(nc(OC[C@@]45CCCN4C[C@H](F)C5)nc3c1F)N1C[C@H]3CC[C@H](N3)[C@H]1[C@H](C)O2)C(F)F` (single isomer, unassigned) [181 (isomer 2)]: the concentration for half-maximal inhibition (IC50) in assay [1] (Homo sapiens, HPAC, 168 h) was 903 nM; on KRAS WT [2] (read-out: KRas HTRF IC50) it was 3030 nM; at KRAS G12D, 50.4 nM; in assay [3] (Homo sapiens, NCI-H1975, 168 h) it was 7260 nM.

As for `Cc1cc(N)c(Cl)c(-c2nc3c4c(nc(OC[C@@]56CCCN5C[C@H](F)C6)nc4c2Cl)N2C[C@H]4CC[C@H](N4)[C@H]2[C@H](C)O3)c1C(F)(F)F` (single isomer, unassigned) [Compound 240 (atrop. 1)], the IC50 in assay [1] was 594 nM; on KRAS WT [2] (read-out: KRas HTRF IC50) it was 1080 nM; on KRAS G12D, 44.9 nM; in assay [3], 6480 nM.

On to `Cc1c(F)c(N)cc(-c2nc3c4c(nc(OC[C@H]5C[C@@H]6COCCN65)nc4c2F)N2C[C@H]4CC[C@H](N4)[C@H]2[C@H](C)O3)c1C(F)(F)F` (single isomer, unassigned) [159 (diast. 1)], for which the IC50 on KRAS WT [4] was found to be 64 nM; on KRAS G12D, 0.28 nM; in assay [3] (Homo sapiens, NCI-H1975, 168 h), 4310 nM.

For the molecule `Cc1c(F)c(N)cc(-c2nc3c4c(nc(OC[C@@]56CCCN5C[C@H](F)C6)nc4c2F)N2C[C@H]4CC[C@H](N4)[C@H]2[C@H](C)O3)c1C(F)(F)F` [Compound 6, 2-Fluoro-5-((5S,5aS,6S,9R)-1-fluoro-12-(((2R,7aS)-2-fluorotetrahydro-1H-pyrrolizin-7a(5H)-yl)methoxy)-5-methyl-5a,6,7,8,9,10-hexahydro-5H-4-oxa-3,10a,11,13,14-pentaaza-6,9-methanonaphtho[1,8-ab]heptalen-2-yl)-3-methyl-4-(trifluoromethyl)aniline], the IC50 is 0.548 nM on KRAS WT [4], 0.48 nM on KRAS WT [2] (setting [5]) and 0.074 nM at KRAS G12D.

As to `C[C@@H]1Oc2nc(-c3cc(N)c(F)cc3[C@H](C)C(F)F)c(F)c3nc(OC[C@@]45CCCN4C[C@H](F)C5)nc(c23)N2C[C@H]3CC[C@H](N3)[C@@H]12` (single isomer, unassigned) [181 (isomer 1)], the IC50 came to 2000 nM in assay [1] (Homo sapiens, HPAC, 168 h); 10900 nM on KRAS WT [4]; 159 nM at KRAS G12D.

As to `Cc1nc(N)cc(-c2nc3c4c(nc(OC[C@]56CCN5CC(F)(F)C6)nc4c2F)N2C[C@H]4CC[C@H](N4)[C@H]2[C@H](C(F)(F)F)O3)c1C(F)(F)F` (single isomer, unassigned) [252 (isomer 2)], the IC50 on KRAS WT [2] (read-out: KRas HTRF IC50) worked out at 159 nM; on KRAS G12D it was 5.89 nM; in assay [3] (Homo sapiens, NCI-H1975, 168 h), 20000 nM.

In the case of `Cc1nc(N)cc(-c2nc3c4c(nc(OC[C@H]5N(C)C[C@@]56CC6(F)F)nc4c2F)N2C[C@H]4CC[C@H](N4)[C@H]2[C@H](C(F)(F)F)O3)c1C(F)(F)F` (single isomer, unassigned) [262 (isomer 2)], the IC50 was found to be 186 nM at KRAS WT [2] (read-out: KRas HTRF IC50); 7.02 nM at KRAS G12D; 20000 nM in assay [3] (Homo sapiens, NCI-H1975, 168 h).

With `C[C@@H]1Oc2nc(-c3c(Cl)c(N)c(F)c(F)c3C(F)(F)F)c(F)c3nc(OC[C@@]45CCCN4C[C@H](F)C5)nc(c23)N2C[C@H]3CC[C@H](N3)[C@@H]12` (atropisomer, axis not shown; (aS)) [Compound 106, 2-Chloro-5,6-difluoro-3-((5S,5aS,6S,9R)-1-fluoro-12-(((2R,7aS)-2-fluorotetrahydro-1H-pyrrolizin-7a(5H)-yl)methoxy)-5-methyl-5a,6,7,8,9,10-hexahydro-5H-4-oxa-3,10a,11,13,14-pentaaza-6,9-methanonaphtho[1,8-ab]heptalen-2-yl)-4-(trifluoromethyl)aniline], the concentration for half-maximal inhibition (IC50) in assay [3] is 622 nM.

For `Cc1c(F)c(N)cc(-c2nc3c4c(nc(OC[C@@H]5C[C@@H](F)[C@H]6CCCN56)nc4c2F)N2C[C@H]4CC[C@H](N4)[C@H]2[C@H](C)O3)c1C(F)(F)F` (single isomer, unassigned) [Compound 160 (diast. 1)], the IC50 at KRAS WT [4] is 31.3 nM; at KRAS G12D, 0.14 nM; in assay [3] (Homo sapiens, NCI-H1975, 168 h), 1000 nM.

Turning to `Cc1c(F)c(N)cc(-c2nc3c4c(nc(OC[C@@]56CCCN5C[C@H](F)[C@@H]6F)nc4c2F)N2C[C@H]4CC[C@H](N4)[C@H]2[C@H](C)O3)c1C(F)(F)F` (single isomer, unassigned) [143 (isomer 3)], the half-inhibitory concentration (IC50) on KRAS WT [4] was 47.3 nM; on KRAS G12D, 0.43 nM; in assay [3] (Homo sapiens, NCI-H1975, 168 h), 1090 nM.

In the case of `Cc1cc(-c2nc3c4c(nc(OC[C@@]56CCCN5C[C@H](F)C6)nc4c2F)N2C[C@H]4CC[C@H](N4)[C@H]2[C@H](C)O3)cc(N)c1F` [Compound 13, 2-fluoro-5-((5S,5aS,6S,9R)-1-fluoro-12-(((2R,7aS)-2-fluorotetrahydro-1H-pyrrolizin-7a(5H)-yl)methoxy)-5-methyl-5a,6,7,8,9,10-hexahydro-5H-4-oxa-3,10a,11,13,14-pentaaza-6,9-methanonaphtho[1,8-ab]heptalen-2-yl)-3-methylaniline], the IC50 came out at 1770 nM at KRAS WT [4], 1540 nM on KRAS WT [2] (setting [5]) and 30.7 nM at KRAS G12D.

With `Cc1c(F)c(N)cc(-c2nc3c4c(nc(OC[C@@H]5CC[C@H]6COCCN65)nc4c2F)N2C[C@H]4CC[C@H](N4)[C@H]2[C@H](C)O3)c1C(F)(F)F` [Compound 31, 2-fluoro-5-((5S,5aS,6S,9R)-1-fluoro-12-(((6S,8aS)-hexahydro-1H-pyrrolo[2,1-c][1,4]oxazin-6-yl)methoxy)-5-methyl-5a,6,7,8,9,10-hexahydro-5H-4-oxa-3,10a,11,13,14-pentaaza-6,9-methanonaphtho[1,8-ab]heptalen-2-yl)-3-methyl-4-(trifluoromethyl)aniline], the figures for the 50% inhibitory concentration (IC50) at KRAS WT [4], on KRAS WT [2] (setting [5]) and on KRAS G12D were 7.11 nM, 1.55 nM and 0.087 nM, respectively.

On to `Cc1c(F)c(N)cc(-c2nc3c4c(nc(OC[C@@]56CCN(C)C5COC6)nc4c2F)N2C[C@H]4CC[C@H](N4)[C@H]2[C@H](C)O3)c1C(F)(F)F` (single isomer, unassigned) [258 (isomer 1)], for which the 50% inhibitory concentration (IC50) in assay [1] (Homo sapiens, HPAC, 168 h) came out at 5 nM; at KRAS WT [2] (read-out: KRas HTRF IC50), 14.9 nM; on KRAS G12D it was 0.09 nM.

Consider `Cc1c(F)c(N)cc(-c2nc3c4c(nc(OC[C@H]5CC[C@@H]6CN(C)C(=O)CN56)nc4c2F)N2C[C@H]4CC[C@H](N4)[C@H]2[C@H](C)O3)c1C(F)(F)F` (single isomer, unassigned) [131 (isomer 4)], for which the IC50 in assay [1] stood at 90 nM; at KRAS WT [4] it was 195 nM; on KRAS G12D, 1.14 nM.

As to `Cc1cc(N)c(F)c(-c2nc3c4c(nc(OC[C@@]56CCCN5C[C@H](F)C6)nc4c2F)N2C[C@H]4CC[C@H](N4)[C@H]2[C@H](C)O3)c1C(F)(F)F` [Compound 34, 2-Fluoro-3-((5S,5aS,6S,9R)-1-fluoro-12-(((2R,7aS)-2-fluorotetrahydro-1H-pyrrolizin-7a(5H)-yl)methoxy)-5-methyl-5a,6,7,8,9,10-hexahydro-5H-4-oxa-3,10a,11,13,14-pentaaza-6,9-methanonaphtho[1,8-ab]heptalen-2-yl)-5-methyl-4-(trifluoromethyl)aniline], the IC50 is 4.29 nM on KRAS WT [4], 2.13 nM at KRAS WT [2] (setting [5]) and 0.235 nM at KRAS G12D.

Regarding `Cc1c(F)c(N)cc(-c2nc3c4c(nc(OC[C@@]56CCCN5C[C@H](F)C6)nc4c2F)N2C[C@H]4CC[C@H](N4)[C@H]2[C@H](C(F)F)O3)c1C(F)(F)F` (single isomer, unassigned) [238 (isomer 1)], the IC50 in assay [1] (Homo sapiens, HPAC, 168 h) is 2000 nM; on KRAS WT [2] (read-out: KRas HTRF IC50), 3810 nM; on KRAS G12D, 7700 nM.

The term IC50 denotes the midpoint of a concentration-inhibition curve.
